From the supplement of paper PMC10307832 come the findings set out here.

What all share (experiment): relative viability (nuclei count vs DMSO), 5 days (fraction); higher = more cells survive
Compound in test [1]: COC1=CC=C(C=C1)CN2C=CC3=C2C=C(C=C3)C(=O)NO
The procedure, abridged: (§1)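 For viability, nuclei in each treated well were divided by nuclei in vehicle wells and the median across plates was taken. Lung cancer cell lines in 1536-well plates were pinned with five library-drug doses (not always all listed) spaced by √10, cultured 5 days without medium change, and imaged at 4× after Hoechst staining, with plates passing only at control CV below 25% and at least one doubling.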

Compound in the next test: C[C@]1(c2nc3c(C(N)=O)cccc3[nH]2)CCCN1 [Veliparib]
The procedure, abridged:
as §1

Compound in test [2]: COC1=CC=C(C=C1)CN2C=CC3=C2C=C(C=C3)C(=O)NO + Cc1nc(NC(=O)N2CCC[C@H]2C(N)=O)sc1-c1ccnc(C(C)(C)C(F)(F)F)c1 [Alpelisib] (partner 2 µM)
The procedure, abridged: (§2)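 Lung cancer cell lines were seeded in 1536-well plates and dosed by pin tool the next day, with either a single drug or a fixed anchor-drug dose combined with five library-drug doses (not always all listed) spaced in √10 steps. Five days later, one step fixed the cells and stained their nuclei (final 0.05% Triton X-100, 1% formaldehyde, 1 ug/ml Hoechst), and nuclei were counted on 4× images. Relative viability is the nuclei count in treated wells divided by the count in vehicle wells, and each value is the median of duplicate plates.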

Compound in the test “Veliparib + Pemetrexed”: C[C@]1(c2nc3c(C(N)=O)cccc3[nH]2)CCCN1 [Veliparib] + Nc1nc2[nH]cc(CCc3ccc(C(=O)N[C@@H](CCC(=O)O)C(=O)O)cc3)c2c(=O)[nH]1 [Pemetrexed] (partner 0.2 µM)
The procedure, abridged:
as §2

HCC-78: the relative viability in test [1] (0.08 µM) stood at 0.803; in test [1] (0.253 µM), 0.876; in test [1] (0.8 µM), 1.01; in test [1] (2.53 µM), 1.02; in test [1] (8 µM), 0.917; in the test with Veliparib (0.02 µM), 0.987. Besides, the relative viability stood at 0.829 with Veliparib (0.06325 µM); 0.949 in the test with Veliparib (0.2 µM); 0.828 in the test with Veliparib (0.6325 µM); 0.888 with Veliparib (2 µM); 0.359 in test [2] (first compound 0.253 µM); 0.395 in test [2] (first compound 0.8 µM). Further, the relative viability turned out to be 0.35 in test [2] (first compound 2.53 µM); 0.305 in test [2] (first compound 8 µM); 0.909 with Veliparib + Pemetrexed (first compound 0.02 µM); 0.925 with Veliparib + Pemetrexed (first compound 0.06325 µM); 0.91 with Veliparib + Pemetrexed (first compound 0.2 µM); 0.494 with Veliparib + Pemetrexed (first compound 0.6325 µM). Moreover, the relative viability in the test with Veliparib + Pemetrexed (first compound 2 µM) amounted to 0.853.
On to HCC-366, for which the relative viability in test [1] (0.08 µM) was 0.791; in test [1] (0.253 µM), 0.993; in test [1] (0.8 µM), 0.973; in test [1] (2.53 µM) it was 0.964; in test [1] (8 µM) it was 1.01; with Veliparib (0.02 µM), 1.03. Besides, the relative viability with Veliparib (0.06325 µM) worked out at 0.992; with Veliparib (0.2 µM), 1; with Veliparib (0.6325 µM), 1.01; with Veliparib (2 µM), 1.03; in test [2] (first compound 0.253 µM) it was 0.435; in test [2] (first compound 0.8 µM) it was 0.384. Besides, the relative viability was 0.587 in test [2] (first compound 2.53 µM); 0.406 in test [2] (first compound 8 µM); 0.178 with Veliparib + Pemetrexed (first compound 0.02 µM); 0.204 in the test with Veliparib + Pemetrexed (first compound 0.06325 µM); 0.227 with Veliparib + Pemetrexed (first compound 0.2 µM); 0.185 in the test with Veliparib + Pemetrexed (first compound 0.6325 µM). The relative viability with Veliparib + Pemetrexed (first compound 2 µM) worked out at 0.207.
In the case of HCC-827, the relative viability in test [1] (0.08 µM) was 1.06; in test [1] (0.253 µM), 0.935; in test [1] (0.8 µM) it was 0.997; in test [1] (2.53 µM), 1.03; in test [1] (8 µM), 0.97; in the test with Veliparib (0.02 µM), 0.986. For the same cell line, the relative viability with Veliparib (0.06325 µM) was found to be 1.03; in the test with Veliparib (0.2 µM) it was 1; with Veliparib (0.6325 µM), 0.977; in the test with Veliparib (2 µM), 1.07; in test [2] (first compound 0.08 µM), 0.975; in test [2] (first compound 0.253 µM) it was 0.947. Further, the relative viability is 1.01 in test [2] (first compound 0.8 µM); 0.995 in test [2] (first compound 2.53 µM); 0.969 in test [2] (first compound 8 µM); 0.25 with Veliparib + Pemetrexed (first compound 0.02 µM); 0.282 with Veliparib + Pemetrexed (first compound 0.06325 µM); 0.256 in the test with Veliparib + Pemetrexed (first compound 0.2 µM). Also, the figures for the relative viability with Veliparib + Pemetrexed (first compound 0.6325 µM) and with Veliparib + Pemetrexed (first compound 2 µM) were 0.215 and 0.273, respectively.
For HOP-62, the relative viability is 0.865 in test [1] (0.08 µM); 1.01 in test [1] (0.253 µM); 0.992 in test [1] (0.8 µM); 1.03 in test [1] (2.53 µM); 0.958 in test [1] (8 µM); 0.934 with Veliparib (0.02 µM). Moreover, the relative viability was found to be 0.909 with Veliparib (0.06325 µM); 0.963 with Veliparib (0.2 µM); 0.976 with Veliparib (0.6325 µM); 1.02 with Veliparib (2 µM); 0.71 in test [2] (first compound 0.08 µM); 0.996 in test [2] (first compound 0.253 µM). The relative viability in test [2] (first compound 0.8 µM) was determined as 0.985; in test [2] (first compound 2.53 µM), 0.932; in test [2] (first compound 8 µM), 0.947; with Veliparib + Pemetrexed (first compound 0.02 µM) it was 0.311; with Veliparib + Pemetrexed (first compound 0.06325 µM) it was 0.376; with Veliparib + Pemetrexed (first compound 0.2 µM), 0.365. Moreover, the relative viability in the test with Veliparib + Pemetrexed (first compound 0.6325 µM) amounted to 0.329; with Veliparib + Pemetrexed (first compound 2 µM), 0.373.
With LC-2-ad, the relative viability in test [1] (0.08 µM) worked out at 0.937; in test [1] (0.253 µM), 0.977; in test [1] (0.8 µM), 1.04; in test [1] (2.53 µM), 0.976; in test [1] (8 µM), 0.963; with Veliparib (0.02 µM), 0.608. The relative viability with Veliparib (0.06325 µM) was determined as 0.944; with Veliparib (0.2 µM), 0.977; in the test with Veliparib (0.6325 µM), 0.941; with Veliparib (2 µM), 0.867; in test [2] (first compound 0.08 µM), 0.857; in test [2] (first compound 0.253 µM), 0.861. The relative viability is 0.833 in test [2] (first compound 0.8 µM); 0.973 in test [2] (first compound 2.53 µM); 0.877 in test [2] (first compound 8 µM); 0.277 with Veliparib + Pemetrexed (first compound 0.02 µM); 0.277 with Veliparib + Pemetrexed (first compound 0.06325 µM); 0.273 with Veliparib + Pemetrexed (first compound 0.2 µM). Further, the relative viability with Veliparib + Pemetrexed (first compound 0.6325 µM) stood at 0.263; in the test with Veliparib + Pemetrexed (first compound 2 µM), 0.287.
Turning to LCLC-97TM1, the relative viability came out at 1.03 in test [1] (0.253 µM); 1.02 in test [1] (0.8 µM); 0.942 in test [1] (2.53 µM); 0.887 in test [1] (8 µM); 0.903 in the test with Veliparib (0.02 µM); 0.925 with Veliparib (0.06325 µM). In addition, the relative viability with Veliparib (0.2 µM) is 0.897; with Veliparib (0.6325 µM) it was 0.912; with Veliparib (2 µM), 0.993; in test [2] (first compound 0.253 µM), 0.242; in test [2] (first compound 0.8 µM), 0.242; in test [2] (first compound 2.53 µM), 0.255. Also, the relative viability in test [2] (first compound 8 µM) came to 0.233; with Veliparib + Pemetrexed (first compound 0.02 µM), 0.19; with Veliparib + Pemetrexed (first compound 0.06325 µM), 0.173; with Veliparib + Pemetrexed (first compound 0.2 µM), 0.177; with Veliparib + Pemetrexed (first compound 0.6325 µM), 0.141; with Veliparib + Pemetrexed (first compound 2 µM) it was 0.189.
Take LCLC-103H: the relative viability is 1.03 in test [1] (0.08 µM); 1.01 in test [1] (0.253 µM); 1.01 in test [1] (0.8 µM); 0.984 in test [1] (2.53 µM); 0.973 in test [1] (8 µM); 1 with Veliparib (0.02 µM). Besides, the relative viability with Veliparib (0.06325 µM) was 0.893; with Veliparib (0.2 µM), 0.999; in the test with Veliparib (0.6325 µM), 1.01; with Veliparib (2 µM), 0.969; in test [2] (first compound 0.08 µM), 0.998; in test [2] (first compound 0.253 µM), 0.992. Besides, the relative viability stood at 0.954 in test [2] (first compound 0.8 µM); 1.03 in test [2] (first compound 2.53 µM); 0.855 in test [2] (first compound 8 µM); 0.447 with Veliparib + Pemetrexed (first compound 0.02 µM); 0.49 with Veliparib + Pemetrexed (first compound 0.06325 µM); 0.454 with Veliparib + Pemetrexed (first compound 0.2 µM). The relative viability in the test with Veliparib + Pemetrexed (first compound 0.6325 µM) was 0.422; in the test with Veliparib + Pemetrexed (first compound 2 µM), 0.478.
